Measurements from US8119630B2 (Arrow Therapeutics Limited, priority 2002, dated 2012).

Legend:
Hep-2 cells = assay: Toxicity studies (XTT), Hep-2 cells; type: cell-based; set-up: TC50 (6d): unit not given beside the values; conditions: for TC50 (2d): Table 2, Examples 75 to 82 and 125 to 184, 2d; for TC50 (6d): Table 2, Examples 75 to 82 and 125 to 184, 6d, in µM
RSV = assay: XTT assay, RSV-infected Hep-2 cells; type: cell-based, Respiratory Syncytial Virus (RSV); conditions: Table 2, Examples 75 to 82 and 125 to 184; Hep-2 cells infected with RSV, 6 days at 37° C.
How it was run: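 Hep-2 cells (4×10^4/well) infected with RSV titrated for 80% cell kill and treated with 25 μM compound (0.5% DMSO) for 6 days at 37 °C. Viability read by XTT/PMS at OD450 after 1 h; uninfected control set as 100% and infected control as 0% inhibition, with IC50 from graph or regression.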

| Substance | TC50 (2d) (Hep-2 cells) [µM] | TC50 (6d) (Hep-2 cells) | IC50 (RSV) [µM] |
| --- | --- | --- | --- |
| N-[5-(3-Chloro-phenyl)-2-oxo-5-phenyl-2,3-dihydro-1H-benzo[e][1,4]diazepin-3-yl]isonicotinamide [Example 160] | > 100 | >100 | 10 |
| Piperidine-1-carboxylic acid [5-(3-chloro-phenyl)-2-oxo-5-phenyl-2,3-dihydro-1H-benzo[e][1,4]diazepin-3-yl]-amide [Example 159] | > 100 | >100 | 2 |
| Piperidine-1-carboxylic acid [5-(3-methoxy-phenyl)-2-oxo-5-phenyl-2,3-dihydro-1H-benzo[e][1,4]diazepin-3-yl]-amide [Example 166] | > 100 | >100 | 5 |
| Piperidine-4-carboxylic acid [5-(3-methoxy-phenyl)-2-oxo-5-phenyl-2,3-dihydro-1H-benzo[e][1,4]diazepin-3-yl]-amide [Example 167] | > 100 | >100 | 9 |
| Thiophene-2-carboxylic acid [5-(3-chloro-phenyl)-2-oxo-5-phenyl-2,3-dihydro-1H-benzo[e][1,4]diazepin-3-yl]-amide [Example 157] | > 100 | 100 | 5 |
| Thiophene-2-carboxylic acid [5-(3-methoxy-phenyl)-2-oxo-5-phenyl-2,3-dihydro-1H-benzo[e][1,4]diazepin-3-yl]-amide [Example 164] | 100 | 100 | 4 |
